Laboratory results as given in DBAASP.
In brackets after ≈: the same amount, converted by molar mass. Values belong to the compound of their own block, whether it stands above or below them.

Tests used:
Experiment in all cases: ≥ marks a high value that may be exact or a test limit, other limits are often not marked, values filed in µg/mL are converted to µM
[1] = tested on: Neisseria gonorrhoeae F62
[2] = tested on: Neisseria gonorrhoeae FA19
[3] = tested on: Staphylococcus sp. BCRC 10451
[4] = tested on: Vibrio harveyi BCRC 13812
[5] = tested on: Staphylococcus aureus BCRC 10780
[6] = tested on: Vibrio alginolyticus
[7] = tested on: Micrococcus luteus BCRC 11034
[8] = tested on: Streptococcus pneumoniae BCRC 10794
[9] = tested on: Bacillus anthracis Sterne 34F2
[10] = tested on: Burkholderia thailandensis
[11] = tested on: Bacillus subtilis ATCC 9372
[12] = tested on: Alternaria sp.
[13] = tested on: Aspergillus ochraceus
[14] = tested on: Fusarium oxysporum
[15] = tested on: Staphylococcus aureus ATCC 25325
[16] = tested on: Colletotrichum sp.
[17] = tested on: Fulvia fulva
[18] = tested on: Escherichia coli ATCC 35218
[19] = tested on: Aspergillus niger
[20] = tested on: Pseudomonas aeruginosa ATCC 27853
[21] = tested on: Acinetobacter baumannii ATCC BAA-1605
[22] = tested on: Staphylococcus aureus NRS 1
[23] = tested on: Staphylococcus aureus USA 200
[24] = tested on: Pseudomonas aeruginosa 1109
[25] = tested on: Pseudomonas aeruginosa ATCC 9027
[26] = tested on: Pseudomonas aeruginosa ATCC BAA-1744
[27] = tested on: Pseudomonas aeruginosa ATCC 10145
[28] = tested on: Staphylococcus aureus ATCC 6538
[29] = tested on: Pseudomonas aeruginosa ATCC 25619
[30] = tested on: Staphylococcus aureus NRS 72
[31] = tested on: Staphylococcus aureus ATCC 43300
[32] = tested on: Staphylococcus aureus RN4220
[33] = tested on: Staphylococcus aureus VRSA1
[34] = tested on: Pseudomonas aeruginosa ATCC 9721
[35] = tested on: Staphylococcus aureus ATCC BAA-44
[36] = tested on: Staphylococcus aureus USA 300
[37] = tested on: Pseudomonas aeruginosa ATCC 15442
[38] = tested on: Pseudomonas aeruginosa 1017
[39] = tested on: Staphylococcus aureus NRS 19
[40] = tested on: Staphylococcus aureus NRS 77
[41] = tested on: Acinetobacter baumannii ATCC BAA-747
[42] = tested on: Pseudomonas aeruginosa ATCC 35032
[43] = tested on: Pseudomonas aeruginosa 1133
[44] = tested on: Staphylococcus aureus USA 100
[45] = tested on: Staphylococcus aureus VRSA2
[46] = tested on: Acinetobacter baumannii NR-17784
[47] = tested on: Acinetobacter baumannii NR-9667
[48] = tested on: Staphylococcus epidermidis NRS 101
[49] = tested on: Acinetobacter baumannii NR-17777
[50] = tested on: Acinetobacter baumannii ATCC 19606

Structure (SMILES): CC(C)[C@H](NC(=O)[C@@H]1CSSC[C@H](N)C(=O)N[C@@H](Cc2ccc(O)cc2)C(=O)N[C@H]2CSSC[C@H](NC(=O)[C@H](Cc3ccccc3)NC(=O)[C@H](CCCNC(=N)N)NC(=O)[C@H](CCCNC(=N)N)NC(=O)[C@H](CCCNC(=N)N)NC2=O)C(=O)N[C@@H](C(C)C)C(=O)N1)C(=O)NCC(=O)N[C@@H](CCCNC(=N)N)C(N)=O [CYCRRRFCVCVGR]
MIC [1]: 2.7 µM (≈ 4.36 µg/mL)
MIC [2]: 6.56 µM (≈ 10.6 µg/mL)

Structure (SMILES): CC[C@H](C)[C@H](NC(=O)[C@H](Cc1cnc[nH]1)NC(=O)[C@H](CCCCN)NC(=O)[C@@H](NC(=O)[C@@H](NC(=O)[C@H](CC(=O)O)NC(=O)[C@H](Cc1ccccc1)NC(=O)[C@H](Cc1c[nH]c2ccccc12)NC(=O)CN)C(C)C)C(C)C)C(=O)N[C@@H](C)C(=O)N[C@@H](CO)C(=O)N[C@@H](C)C(=O)N[C@H](C(=O)O)C(C)C [GWFDVVKHIASAV]
MIC [9]: ≥ 100 µM
MIC [10]: ≥ 50 µM
MIC [11]: ≥ 100 µM

Structure (SMILES): CC[C@H](C)[C@H](NC(=O)[C@H](CCCN=C(N)N)NC(=O)[C@H](CCCN=C(N)N)NC(=O)[C@H](CC(C)C)NC(=O)[C@@H](N)Cc1c[nH]c2ccccc12)C(=O)N[C@@H](CCCCN)C(=O)N[C@@H](C)C(=O)N[C@@H](Cc1c[nH]c2ccccc12)C(=O)N[C@@H](CC(C)C)C(=O)N[C@@H](CCCN=C(N)N)C(=O)N[C@@H](CCCN=C(N)N)C(=O)O [WLRRIKAWLRR]
MIC [21]: ≥ 32 µM
MIC [22]: 16 µM (≈ 24.9 µg/mL)
MIC [23]: 8 µM (≈ 12.4 µg/mL)
MIC [24]: ≥ 128 µM
MIC [25]: 64 µM (≈ 99.5 µg/mL)
MIC [26]: ≥ 128 µM
MIC [27]: ≥ 128 µM
MIC [28]: 16 µM (≈ 24.9 µg/mL)
MIC [29]: ≥ 64 µM
MIC [30]: ≥ 32 µM
MIC [31]: 16 µM (≈ 24.9 µg/mL)
MIC [32]: 8 µM (≈ 12.4 µg/mL)
MIC [33]: ≥ 32 µM
MIC [34]: ≥ 64 µM
MIC [35]: 16 µM (≈ 24.9 µg/mL)
MIC [36]: 16 µM (≈ 24.9 µg/mL)
MIC [37]: ≥ 128 µM
MIC [38]: ≥ 128 µM
MIC [39]: 8 µM (≈ 12.4 µg/mL)
MIC [40]: 16 µM (≈ 24.9 µg/mL)
MIC [41]: ≥ 64 µM
MIC [42]: ≥ 64 µM
MIC [43]: ≥ 64 µM
MIC [44]: 16 µM (≈ 24.9 µg/mL)
MIC [45]: 16 µM (≈ 24.9 µg/mL)
MIC [46]: ≥ 64 µM
MIC [47]: ≥ 32 µM
MIC [20]: 64 µM (≈ 99.5 µg/mL)
MIC [48]: 8 µM (≈ 12.4 µg/mL)
MIC [49]: 16 µM (≈ 24.9 µg/mL)
MIC [50]: 16 µM (≈ 24.9 µg/mL)

More lines, now with the values ahead:

MIC [3]: 8.66 µM (≈ 12.9 µg/mL)
MIC [4]: 4.33 µM (≈ 6.43 µg/mL)
MIC [5]: 4.33 µM (≈ 6.43 µg/mL)
MIC [6]: 17.3 µM (≈ 25.7 µg/mL)
Structure (SMILES): CC[C@H](C)[C@H](NC(=O)[C@H](Cc1ccccc1)NC(C)=O)C(=O)N[C@@H](Cc1ccccc1)C(=O)N[C@@H](Cc1cnc[nH]1)C(=O)N[C@H](C(=O)N[C@H](C(=O)N[C@@H](CCCCN)C(=O)NCC(=O)N[C@@H](CC(C)C)C(=O)N[C@@H](Cc1ccccc1)C(=O)N[C@@H](Cc1cnc[nH]1)C(=O)N[C@@H](C)C(N)=O)[C@@H](C)CC)[C@@H](C)CC [FIFHIIKGLFHA]

MIC [7]: ≥ 44.2 µM
MIC [3]: 5.52 µM (≈ 12.7 µg/mL)
MIC [8]: ≥ 44.2 µM
MIC [5]: ≥ 44.2 µM
Structure (SMILES): CC[C@H](C)[C@H](NC(=O)[C@H](CCCCN)NC(=O)[C@@H]1CCCN1C(=O)[C@@H](NC(=O)[C@H](CC(C)C)NC(=O)[C@H](C)NC(=O)[C@H](Cc1ccccc1)NC(=O)[C@H](Cc1ccccc1)NC(=O)CNC(C)=O)[C@@H](C)CC)C(=O)N[C@H](C(=O)N[C@@H](CO)C(=O)N[C@@H](CO)C(=O)N1CCC[C@H]1C(=O)N[C@@H](CC(C)C)C(=O)N[C@@H](Cc1ccccc1)C(=O)N[C@@H](CCCCN)C(=O)N[C@H](C(=O)N[C@@H](CC(C)C)C(=O)N[C@@H](CC(C)C)C(=O)N[C@@H](CO)C(=O)N[C@@H](C)C(N)=O)[C@@H](C)O)[C@@H](C)CC [GFFALIPKIISSPLFKTLLSA]

MIC [12]: 4.67 µM (≈ 6.25 µg/mL)
MIC [13]: ≥ 37.4 µM
MIC [14]: 2.33 µM (≈ 3.12 µg/mL)
MIC [15]: 4.6 µM (≈ 6.15 µg/mL)
MIC [16]: 2.33 µM (≈ 3.12 µg/mL)
MIC [17]: 9.35 µM (≈ 12.5 µg/mL)
MIC [18]: 4 µM (≈ 5.35 µg/mL)
MIC [19]: 4.67 µM (≈ 6.25 µg/mL)
MIC [20]: 9.1 µM (≈ 12.2 µg/mL)
Structure (SMILES): CC(C)C[C@H](NC(=O)[C@H](Cc1ccc(O)cc1)NC(=O)[C@H](Cc1cnc[nH]1)NC(=O)[C@@H](NC(=O)[C@H](CC(C)C)NC(=O)[C@H](C)NC(=O)[C@H](C)NC(=O)[C@H](CCCCN)NC(=O)CNC(=O)[C@@H](NC(=O)[C@H](Cc1cnc[nH]1)NC(=O)[C@@H](N)CCCCN)C(C)C)[C@@H](C)O)C(=O)O [KHVGKAALTHYL]
